Laboratory results taken from ChEMBL document CHEMBL1201861, “Genomics of Drug Sensitity in Cancer screening data, Wellcome Trust Sanger Institute”.

Legend:
Experiment in all cases: cells
Type in all cases: functional, cell-based
Details in all cases: Homo sapiens
LB1047-RCC = tested on: LB1047-RCC;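 note: inhibition of cell growth, determined with a cell viability assay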
Description: SANGER: Inhibition of human LB1047-RCC cell growth in a cell viability assay.

NEC8 = tested on: NEC8;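 note: growth inhibition of human NEC8 cells, read out by a cell viability assay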
Description: SANGER: Inhibition of human NEC8 cell growth in a cell viability assay.

EOL1 = tested on: EOL1;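 note: growth inhibition of EoL-1 cells, read out by a cell viability assay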
Description: SANGER: Inhibition of human EoL-1-cell cell growth in a cell viability assay.

CGTH-W-1 = tested on: CGTH-W-1;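 note: growth inhibition of human CGTH-W-1 cells measured by cell viability assay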
Description: SANGER: Inhibition of human CGTH-W-1 cell growth in a cell viability assay.

KINGS-1 = tested on: KINGS-1;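 note: cell viability assay measuring suppression of KINGS-1 cell growth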
Description: SANGER: Inhibition of human KINGS-1 cell growth in a cell viability assay.

SK-N-DZ = tested on: SK-N-DZ;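 note: growth inhibition of the cancer cell line, read out through a viability assay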
Description: SANGER: Inhibition of human SK-N-DZ cell growth in a cell viability assay.

COLO-800 = tested on: COLO-800;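 note: growth inhibition of COLO-800 cells, read out with a cell viability assay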
Description: SANGER: Inhibition of human COLO-800 cell growth in a cell viability assay.

NB10 = tested on: NB10;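 note: growth inhibition of NB10 cells, read out by a cell viability assay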
Description: SANGER: Inhibition of human NB10 cell growth in a cell viability assay.

NCI-H226 = tested on: NCI-H226;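 note: cell viability read-out used to gauge growth inhibition of the cells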
Description: SANGER: Inhibition of human NCI-H226 cell growth in a cell viability assay.

SNU-C2B = tested on: SNU-C2B;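 note: cell viability readout used to measure compound-driven suppression of SNU-C2B cell proliferation, IC50 marking half-maximal growth inhibition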
Description: SANGER: Inhibition of human SNU-C2B cell growth in a cell viability assay.

TGBC24TKB = tested on: TGBC24TKB;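 note: growth inhibition of human TGBC24TKB cells, read out with a cell viability assay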
Description: SANGER: Inhibition of human TGBC24TKB cell growth in a cell viability assay.

COLO-320-HSR = tested on: COLO-320-HSR;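 note: growth inhibition of COLO-320-HSR cells, determined with a cell viability assay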
Description: SANGER: Inhibition of human COLO-320-HSR cell growth in a cell viability assay.

NCI-H1395 = tested on: NCI-H1395;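 note: cell viability assay read-out quantifying reduced proliferation of human NCI-H1395 cells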
Description: SANGER: Inhibition of human NCI-H1395 cell growth in a cell viability assay.

NCI-H747 = tested on: NCI-H747;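 note: growth inhibition of human NCI-H747 cells, read out by a cell viability assay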
Description: SANGER: Inhibition of human NCI-H747 cell growth in a cell viability assay.

NCI-H720 = tested on: NCI-H720;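 note: growth inhibition of human NCI-H720 cells determined by a cell viability assay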
Description: SANGER: Inhibition of human NCI-H720 cell growth in a cell viability assay.

RH-1 = tested on: RH-1;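 note: growth inhibition of human RH-1 cells, read out with a cell viability assay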
Description: SANGER: Inhibition of human RH-1 cell growth in a cell viability assay.

A101D = tested on: A101D;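 note: growth inhibition of the cell line, measured with a viability assay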
Description: SANGER: Inhibition of human A101D cell growth in a cell viability assay.

LB2241-RCC = tested on: LB2241-RCC;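 note: cell viability assay measuring how strongly the cultured human renal carcinoma line is prevented from growing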
Description: SANGER: Inhibition of human LB2241-RCC cell growth in a cell viability assay.

SK-LMS-1 = tested on: SK-LMS-1;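 note: growth inhibition of human SK-LMS-1 cells, read out with a cell viability assay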
Description: SANGER: Inhibition of human SK-LMS-1 cell growth in a cell viability assay.

TE-8 = tested on: TE-8;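 note: growth inhibition of TE-8 cells, measured with a cell viability readout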
Description: SANGER: Inhibition of human TE-8 cell growth in a cell viability assay.

HCC2218 = tested on: HCC2218;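 note: cell viability assay read-out, with IC50 given as the concentration that inhibits growth of the cell line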
Description: SANGER: Inhibition of human HCC2218 cell growth in a cell viability assay.

TGBC1TKB = tested on: TGBC1TKB;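 note: growth inhibition of TGBC1TKB cells, read out by a cell viability assay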
Description: SANGER: Inhibition of human TGBC1TKB cell growth in a cell viability assay.

NCI-H82 = tested on: NCI-H82;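 note: growth inhibition of NCI-H82 cells, measured with a cell viability readout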
Description: SANGER: Inhibition of human NCI-H82 cell growth in a cell viability assay.

SJSA-1 = tested on: SJSA-1;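 note: growth inhibition of human SJSA-1 cells, read out through a cell viability measurement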
Description: SANGER: Inhibition of human SJSA-1 cell growth in a cell viability assay.

U-266 = tested on: U-266
Description: SANGER: Inhibition of human U-266 cell growth in a cell viability assay.

HCC1187 = tested on: HCC1187;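 note: growth inhibition of HCC1187 cells, read out with a cell viability assay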
Description: SANGER: Inhibition of human HCC1187 cell growth in a cell viability assay.

Mo = tested on: Mo
Description: SANGER: Inhibition of human Mo-T cell growth in a cell viability assay.

ALL-PO = tested on: ALL-PO;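 note: growth inhibition of ALL-PO cells, read out by a cell viability assay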
Description: SANGER: Inhibition of human ALL-PO cell growth in a cell viability assay.

A388 = tested on: A388;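 note: growth inhibition of human A388 cells, read out with a cell viability assay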
Description: SANGER: Inhibition of human A388 cell growth in a cell viability assay.

MFM-223 = tested on: MFM-223
Description: SANGER: Inhibition of human MFM-223 cell growth in a cell viability assay.

CAS-1 = tested on: CAS-1;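 note: growth inhibition of CAS-1 cells, measured with a cell viability assay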
Description: SANGER: Inhibition of human CAS-1 cell growth in a cell viability assay.

CTV-1 = tested on: CTV-1;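 note: growth inhibition of the cell line, read out with a cell viability assay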
Description: SANGER: Inhibition of human CTV-1 cell growth in a cell viability assay.

ES1 = tested on: ES1;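 note: growth inhibition of ES1 cells, read out with a cell viability assay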
Description: SANGER: Inhibition of human ES1 cell growth in a cell viability assay.

BB30-HNC = tested on: BB30-HNC;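 note: growth inhibition of the cultured cell line, read out by a cell viability assay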
Description: SANGER: Inhibition of human BB30-HNC cell growth in a cell viability assay.

COLO-668 = tested on: COLO-668
Description: SANGER: Inhibition of human COLO-668 cell growth in a cell viability assay.

HDLM-2 = tested on: HDLM-2;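 note: cell viability assay measuring suppression of HDLM-2 proliferation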
Description: SANGER: Inhibition of human HDLM-2 cell growth in a cell viability assay.

GR-ST = tested on: GR-ST
Description: SANGER: Inhibition of human GR-ST cell growth in a cell viability assay.

LAMA-84 = tested on: LAMA-84;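 note: growth inhibition of LAMA-84 cells, read out with a cell viability assay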
Description: SANGER: Inhibition of human LAMA-84 cell growth in a cell viability assay.

GB-1 = tested on: GB-1;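 note: growth of GB-1 cells judged by a viability assay, IC50 marks the concentration inhibiting growth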
Description: SANGER: Inhibition of human GB-1 cell growth in a cell viability assay.

L-428 = tested on: L-428
Description: SANGER: Inhibition of human L-428 cell growth in a cell viability assay.

TE-9 = tested on: TE-9;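 note: cell growth inhibition, measured with a cell viability readout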
Description: SANGER: Inhibition of human TE-9 cell growth in a cell viability assay.

AM-38 = tested on: AM-38;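 note: growth inhibition of AM-38 cells of human origin, read out by a cell viability assay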
Description: SANGER: Inhibition of human AM-38 cell growth in a cell viability assay.

RKO = tested on: RKO;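 note: growth inhibition of human RKO cells, read out with a cell viability assay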
Description: SANGER: Inhibition of human RKO cell growth in a cell viability assay.

SNB-75 = tested on: SNB-75;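 note: cell viability assay measuring growth inhibition of human SNB-75 cells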
Description: SANGER: Inhibition of human SNB75 cell growth in a cell viability assay.

NB13 = tested on: NB13;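 note: cell viability readout measuring growth inhibition of human NB13 cells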
Description: SANGER: Inhibition of human NB13 cell growth in a cell viability assay.

NCI-H1355 = tested on: NCI-H1355;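 note: growth inhibition of human NCI-H1355 cells, read out by a cell viability assay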
Description: SANGER: Inhibition of human NCI-H1355 cell growth in a cell viability assay.

MSTO-211H = tested on: MSTO-211H
Description: SANGER: Inhibition of human MSTO-211H cell growth in a cell viability assay.

DSH1 = tested on: DSH1;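 note: growth inhibition of human DSH1 cells, measured with a cell viability readout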
Description: SANGER: Inhibition of human DSH1 cell growth in a cell viability assay.

Becker = tested on: Becker;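 note: growth inhibition of Becker cells, read out with a cell viability assay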
Description: SANGER: Inhibition of human Becker cell growth in a cell viability assay.

LS-1034 = tested on: LS-1034
Description: SANGER: Inhibition of human LS-1034 cell growth in a cell viability assay.

SF-539 = tested on: SF-539;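 note: Read-out is a cell viability assay, with IC50 reflecting inhibition of cell growth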
Description: SANGER: Inhibition of human SF539 cell growth in a cell viability assay.

SF-126 = tested on: SF-126;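 note: growth inhibition of human SF126 cells, read out with a cell viability assay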
Description: SANGER: Inhibition of human SF126 cell growth in a cell viability assay.

KNS-81-FD = tested on: KNS-81-FD;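 note: growth inhibition of KNS-81-FD cells, read out with a cell viability assay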
Description: SANGER: Inhibition of human KNS-81-FD cell growth in a cell viability assay.

HOP-62 = tested on: HOP-62;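 note: cell growth inhibition determined with a viability assay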
Description: SANGER: Inhibition of human HOP-62 cell growth in a cell viability assay.

TE-12 = tested on: TE-12;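 note: growth inhibition of TE-12 cells, read out by a cell viability assay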
Description: SANGER: Inhibition of human TE-12 cell growth in a cell viability assay.

NCI-H1650 = tested on: NCI-H1650;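 note: growth inhibition of human NCI-H1650 cells measured by a cell viability assay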
Description: SANGER: Inhibition of human NCI-H1650 cell growth in a cell viability assay.

NCI-H69 = tested on: NCI-H69
Description: SANGER: Inhibition of human NCI-H69 cell growth in a cell viability assay.

KNS-42 = tested on: KNS-42
Description: SANGER: Inhibition of human KNS-42 cell growth in a cell viability assay.

MC116 = tested on: MC116
Description: SANGER: Inhibition of human MC116 cell growth in a cell viability assay.

DMS-114 = tested on: DMS-114
HC-1 = tested on: HC-1
Description: SANGER: Inhibition of human HC-1 cell growth in a cell viability assay.

HD-MY-Z = tested on: HD-MY-Z
Description: SANGER: Inhibition of human HD-MY-Z cell growth in a cell viability assay.

CTB-1 = tested on: CTB-1
Description: SANGER: Inhibition of human CTB-1 cell growth in a cell viability assay.

EM-2 = tested on: EM-2
Description: SANGER: Inhibition of human EM-2 cell growth in a cell viability assay.

KGN = tested on: KGN
Description: SANGER: Inhibition of human KGN cell growth in a cell viability assay.

KY821 = tested on: KY821
Description: SANGER: Inhibition of human KY821 cell growth in a cell viability assay.

Measured: IC50

CC(O)(CS(=O)(=O)c1ccc(F)cc1)C(=O)Nc1ccc(C#N)c(C(F)(F)F)c1 (configuration not stated) [BICALUTAMIDE]
> 1020 nM: all assays above

COc1cc(Nc2c(C#N)cnc3cc(OCCCN4CCN(C)CC4)c(OC)cc23)c(Cl)cc1Cl [BOSUTINIB]
1940 nM: A101D
1640 nM: HD-MY-Z
416 nM: EOL1
548 nM: CTB-1
537 nM: LB2241-RCC
287 nM: LAMA-84
164 nM: CTV-1
1130 nM: KY821
1290 nM: BB30-HNC
675 nM: ES1
439 nM: EM-2
1240 nM: LB1047-RCC
> 2000 nM: all other assays above
